Experimental data taken from ChEMBL document CHEMBL5512645, “A novel antimicrobial peptide with broad-spectrum and exceptional stability derived from the natural peptide Brevicidine” (Eur J Med Chem, 2024).
In brackets after ≈: the same amount, converted by molar mass. Bridge positions count the residues as written; N and C are the ends. Square brackets hold non-standard residues; d marks the D form. Peptide text beside a SMILES is read from it. * marks the point of attachment. Lauroyl = CCCCCCCCCCCC(=O)*; Decanoyl = CCCCCCCCCC(=O)*; dOrn = NCCC[C@@H](N)C(=O)O; Octanoyl = CCCCCCCC(=O)*; Orn = NCCC[C@H](N)C(=O)O

Columns and labels:
[1] = tested on: Enterococcus faecalis; assay: Antibacterial activity against Enterococcus faecalis ATCC 29212 incubated for 18 to 24 hrs by broth microdilution method; type: functional; settings: time 18-24 hrs
[2] = tested on: Acinetobacter baumannii; assay: Antibacterial activity against Acinetobacter baumannii ATCC 19606 incubated for 18 to 24 hrs by broth microdilution method; type: functional; settings: time 18-24 hrs
[3] = tested on: Staphylococcus epidermidis; assay: Antibacterial activity against Staphylococcus epidermidis ATCC 12228 incubated for 18 to 24 hrs by broth microdilution method; type: functional; settings: time 18-24 hrs
[4] = tested on: Staphylococcus aureus; assay: Antibacterial activity against Staphylococcus aureus ATCC 25923 incubated for 18 to 24 hrs by broth microdilution method; type: functional; settings: time 18-24 hrs
[5] = tested on: Escherichia coli; assay: Antibacterial activity against Escherichia coli ATCC 25922 incubated for 18 to 24 hrs by broth microdilution method; type: functional; settings: time 18-24 hrs
[6] = tested on: Pseudomonas aeruginosa; assay: Antibacterial activity against Pseudomonas aeruginosa ATCC 27853 incubated for 18 to 24 hrs by broth microdilution method; type: functional; settings: time 18-24 hrs
[7] = tested on: Klebsiella pneumoniae; assay: Antibacterial activity against Klebsiella pneumoniae ATCC 700603 incubated for 18 to 24 hrs by broth microdilution method; type: functional; settings: time 18-24 hrs
[8] = tested on: Bacillus subtilis; assay: Antibacterial activity against Bacillus subtilis ATCC 23857 incubated for 18 to 24 hrs by broth microdilution method; type: functional; settings: time 18-24 hrs
[9] = tested on: Erythrocyte; assay: Hemolytic activity in mouse red blood cell assessed as hemolysis incubated for 1 hr; type: toxicity, cell-based

| SMILES | MIC [1] [µM] | MIC [2] [µM] | MIC [3] [µM] | MIC [4] [µM] | MIC [5] [µM] | MIC [6] [µM] | MIC [7] [µM] | MIC [8] [µM] | MHC [9] [µM] |
| --- | --- | --- | --- | --- | --- | --- | --- | --- | --- |
| CCC(C)CCC(=O)N[C@H](CC(N)=O)C(=O)N[C@H](Cc1ccc(O)cc1)C(=O)N[C@H](Cc1c[nH]c2ccccc12)C(=O)N[C@H](CCCCN)C(=O)N[C@@H](CCCCN)C(=O)NCC(=O)N[C@H](CCCCN)C(=O)N[C@@H](Cc1c[nH]c2ccccc12)C(=O)N[C@@H]1C(=O)N[C@@H]([C@@H](C)CC)C(=O)NCC(=O)N[C@@H](CO)C(=O)O[C@@H]1C (stereo partly drawn) | 64 (≈ 100 µg/mL) | 8 (≈ 12.5 µg/mL) | 32 (≈ 50 µg/mL) | 64 (≈ 100 µg/mL) | 4 (≈ 6.25 µg/mL) | 4 (≈ 6.25 µg/mL) | 8 (≈ 12.5 µg/mL) | 32 (≈ 50 µg/mL) | 128 |
| CCC(C)CCC(=O)N[C@H](CC(N)=O)C(=O)N[C@H](Cc1ccc(O)cc1)C(=O)N[C@H](Cc1c[nH]c2ccccc12)C(=O)N[C@H](CCN)C(=O)N[C@@H](CCN)C(=O)NCC(=O)N[C@H](CCN)C(=O)N[C@@H](Cc1c[nH]c2ccccc12)C(=O)N[C@@H]1C(=O)N[C@@H]([C@@H](C)CC)C(=O)NCC(=O)N[C@@H](CO)C(=O)O[C@@H]1C (stereo partly drawn) | 64 (≈ 94.6 µg/mL) | 32 (≈ 47.3 µg/mL) | 8 (≈ 11.8 µg/mL) | 64 (≈ 94.6 µg/mL) | 4 (≈ 5.91 µg/mL) | 4 (≈ 5.91 µg/mL) | 8 (≈ 11.8 µg/mL) | 16 (≈ 23.6 µg/mL) | 128 |
| CCCCCCCCCC(=O)N[C@H](CCCN)C(=O)N[C@H](Cc1ccc(O)cc1)C(=O)N[C@H](Cc1c[nH]c2ccccc12)C(=O)N[C@H](CCCN)C(=O)N[C@@H](CCCN)C(=O)NCC(=O)N[C@H](CCCN)C(=O)N[C@@H](Cc1c[nH]c2ccccc12)C(=O)N[C@@H]1C(=O)N[C@@H]([C@@H](C)CC)C(=O)NCC(=O)N[C@@H](CO)C(=O)O[C@@H]1C | 64 (≈ 100 µg/mL) | 16 (≈ 25 µg/mL) | 16 (≈ 25 µg/mL) | 32 (≈ 50 µg/mL) | 8 (≈ 12.5 µg/mL) | 8 (≈ 12.5 µg/mL) | 16 (≈ 25 µg/mL) | 16 (≈ 25 µg/mL) | 128 |
| CCC(C)CCC(=O)N[C@H](CCCN)C(=O)N[C@H](Cc1ccc(O)cc1)C(=O)N[C@H](Cc1c[nH]c2ccccc12)C(=O)N[C@H](CCCN)C(=O)N[C@@H](CCCN)C(=O)N[C@@H](CCCN)C(=O)N[C@H](CCCN)C(=O)N[C@@H](Cc1c[nH]c2ccccc12)C(=O)N[C@@H]1C(=O)N[C@@H]([C@@H](C)CC)C(=O)NCC(=O)N[C@@H](CO)C(=O)O[C@@H]1C (stereo partly drawn) | > 128 | 16 (≈ 25.2 µg/mL) | 16 (≈ 25.2 µg/mL) | 32 (≈ 50.5 µg/mL) | 8 (≈ 12.6 µg/mL) | 1 (≈ 1.58 µg/mL) | 2 (≈ 3.15 µg/mL) | 4 (≈ 6.31 µg/mL) | 128 |
| CCCCCCCCCC(=O)N[C@H](CC(N)=O)C(=O)N[C@H](Cc1ccc(O)cc1)C(=O)N[C@H](Cc1c[nH]c2ccccc12)C(=O)N[C@H](CCCN)C(=O)N[C@@H](CCCN)C(=O)NCC(=O)N[C@H](CCCN)C(=O)N[C@@H](Cc1c[nH]c2ccccc12)C(=O)N[C@@H]1C(=O)N[C@@H]([C@@H](C)CC)C(=O)NCC(=O)N[C@@H](CO)C(=O)O[C@@H]1C (Decanoyl-[dN][dY][dW][dOrn][Orn]G[dOrn]WTIGS; ester 9-C) | 32 (≈ 50 µg/mL) | 2 (≈ 3.12 µg/mL) | 4 (≈ 6.25 µg/mL) | 16 (≈ 25 µg/mL) | 2 (≈ 3.12 µg/mL) | 2 (≈ 3.12 µg/mL) | 2 (≈ 3.12 µg/mL) | 4 (≈ 6.25 µg/mL) | 8 |
| CCCCCCCCCCCC(=O)N[C@H](CC(N)=O)C(=O)N[C@H](Cc1ccc(O)cc1)C(=O)N[C@H](Cc1c[nH]c2ccccc12)C(=O)N[C@H](CCCN)C(=O)N[C@@H](CCCN)C(=O)NCC(=O)N[C@H](CCCN)C(=O)N[C@@H](Cc1c[nH]c2ccccc12)C(=O)N[C@@H]1C(=O)N[C@@H]([C@@H](C)CC)C(=O)NCC(=O)N[C@@H](CO)C(=O)O[C@@H]1C (Lauroyl-[dN][dY][dW][dOrn][Orn]G[dOrn]WTIGS; ester 9-C) | 16 (≈ 25.4 µg/mL) | 4 (≈ 6.36 µg/mL) | 4 (≈ 6.36 µg/mL) | 16 (≈ 25.4 µg/mL) | 8 (≈ 12.7 µg/mL) | 2 (≈ 3.18 µg/mL) | 8 (≈ 12.7 µg/mL) | 4 (≈ 6.36 µg/mL) | 4 |
| CCCCCCCC(=O)N[C@H](CC(N)=O)C(=O)N[C@H](Cc1ccc(O)cc1)C(=O)N[C@H](Cc1c[nH]c2ccccc12)C(=O)N[C@H](CCCN)C(=O)N[C@@H](CCCN)C(=O)NCC(=O)N[C@H](CCCN)C(=O)N[C@@H](Cc1c[nH]c2ccccc12)C(=O)N[C@@H]1C(=O)N[C@@H]([C@@H](C)CC)C(=O)NCC(=O)N[C@@H](CO)C(=O)O[C@@H]1C (Octanoyl-[dN][dY][dW][dOrn][Orn]G[dOrn]WTIGS; ester 9-C) | 64 (≈ 98.2 µg/mL) | 4 (≈ 6.14 µg/mL) | 16 (≈ 24.5 µg/mL) | 32 (≈ 49.1 µg/mL) | 2 (≈ 3.07 µg/mL) | 2 (≈ 3.07 µg/mL) | 4 (≈ 6.14 µg/mL) | 8 (≈ 12.3 µg/mL) | 64 |
